Experiment [1] has as its system Sprague-Dawley rats. The experiment can be described thus: Ventricular arrhythmias during FPO, Lown classification and VPB score. The conditions noted are these: rat, in vivo.
The test system of experiment [2] is Sprague-Dawley rats. The experiment can be described thus: Infarct size by TTC staining after final permanent occlusion. It counts as in vivo, rat.
In experiment [3] the test system is Sprague-Dawley rats. The experiment can be described thus: ST segment elevation (ECG) during final permanent LAD occlusion (FPO), rat repetitive ischemia protocol (RIP) arteriogenesis model. It counts as in vivo.
The test system of a further experiment is arteriogenesis. To be noted: nitroglycerin: administered continuously; cited from earlier work.

The text below walks through data of patent US11166931B2, “Induction of arteriogenesis with an NO (nitric oxide) donor” (G. Pohl-Boskamp GmbH & Co. KG, priority 2012, dated 2021).

“Also recorded” adds a separate entry of the source.

As for `CC(=O)Oc1ccccc1C(=O)O` [ASA+NTG-PLACEBO], in the experiment on Sprague-Dawley rats [1], the VPB-Score came to 5.50, the “rats with class IIIa arrhythmias (Lown) during FPO” value worked out at 16.7% and the “rats with class IVb arrhythmias (Lown) during FPO” value is reported as 83.3%. Besides, in the experiment with Sprague-Dawley rats [2] (rat, in vivo), the “Infarct size (percentage of the area of the left ventricle)” value turned out to be 13.92 ±1.71%.
Regarding `CC(=O)Oc1ccccc1C(=O)O` [ASA, acetyl salicylic acid], the “ST elevation / ECG parameters during FPO compared to controls (in words)” value in the experiment with Sprague-Dawley rats [3] (5 DAYS RIP) is on record as “impairment of ECG parameters”. In the experiment with Sprague-Dawley rats [2] (5 DAYS RIP), the “infarct size / infarct volume compared to other groups (in words)” value was “increase of infarct volumes”. In addition, in the experiment with arteriogenesis, the “effect on arteriogenesis described in the art (in words)” value is given as “inhibitor of arteriogenesis”.
For the compound `O=[N+]([O-])O[C@H]1CO[C@H]2[C@@H]1OC[C@H]2O[N+](=O)[O-]` [ISDN, isosorbide dinitrate], the “ST elevation / ECG parameters during FPO compared to controls (in words)” value in the experiment on Sprague-Dawley rats [3] (rat, in vivo) is “non-significantly decreased; also recorded: decreases in ST elevation”. Also, the “arrhythmias during FPO compared to controls (in words)” value in the experiment with Sprague-Dawley rats [1] was “less arrhythmias”. Moreover, the “infarct size / infarct volume compared to other groups (in words)” value in the experiment with Sprague-Dawley rats [2] (rat, in vivo) is on record as “reduced infarct volumes”.
For the compound `O=[N+]([O-])OCC(CO[N+](=O)[O-])O[N+](=O)[O-]` [NTG, nitroglycerin], the “ST elevation / ECG parameters during FPO compared to controls (in words)” value with Sprague-Dawley rats [3] (rat, in vivo) is listed as “significantly attenuated ST elevation”. Also, the “arrhythmias during FPO compared to controls (in words)” value with Sprague-Dawley rats [1] is “decreased serious arrhythmias”. For the same compound, the “infarct volume decreased compared to the control group” value in the experiment with Sprague-Dawley rats [2] (rat, in vivo) is reported as “more than 50%”. Further, in the experiment on arteriogenesis, the “effect on arteriogenesis described in the art (in words)” value is recorded as “not able to induce angiogenesis (neovascularisation) or arteriogenesis”.
